Test results as given in paper PMC8421423, “Cellular model system to dissect the isoform-selectivity of Akt inhibitors” (Nature Communications, 2021).
Where “and” joins values, the source holds several entries; their conditions need not be identical. Identical values can stand only once. Like-named read-outs stand apart in the source and are kept apart here.

Assays:
Ba/F3^myr-Akt1 cells = experiment: CellTiter-Glo cell viability assay; settings: for cell viability: CTG
Ba/F3^myr-Akt2 cells = experiment: CellTiter-Glo cell viability assay; settings: for cell viability: CTG
Ba/F3^myr-Akt3 cells = experiment: CellTiter-Glo cell viability assay; settings: for cell viability: CTG
Experimental: On day 0, cells were plated into white 384-well cell culture plates (Greiner Bio-One) using a Multidrop reagent dispenser (Thermo Fisher Scientific) at cell numbers that ensure linear and optimal luminescent signal intensity (Ba/F3myr-Akt1: 600 cells/well, Ba/F3myr-Akt2: 800 cells/well, Ba/F3myr-Akt3: 800 cells/well). […] Cell viability was analyzed on day 4 using the CellTiter-Glo Assay (Promega) as per the manufacturer’s instructions. […] All experimental points were measured in duplicates for each plate and were replicated in at least three plates.

Akt2 [1] = molecular target: T1, Akt2 (Homo sapiens, UniProt P31751); experiment: Cellular thermal shift assay (CETSA) in PANC1 cells; type: cell-based; design: purchased Thermo Fisher Scientific #PV3184
Experimental: Cells were seeded into 100 mm tissue culture plates (Sarstedt) (PANC1: 10^6 cells). After 24 h incubation, cells were treated with 1 µM of inhibitors or DMSO and were incubated for 4.5 h. Cells were washed twice with ice-cold PBS and then suspended in 1 mL PBS. Cells were collected and separated into equal volumes (100 µL). The aliquots were treated individually with different temperatures for 3 min, followed by a 3 min incubation at room temperature. Cell lysis was initiated by adding 100 µL RIPA buffer and 2 freeze-thaw cycles in liquid nitrogen. The lysates were centrifuged at 21,130×g for 20 min at room temperature. The supernatants were transferred into fresh, pre-cooled microcentrifuge tubes, and analyzed by western blot analysis as described above.

Akt1 = Akt1 (Homo sapiens, UniProt P31749); experiment: STK HTRF KinEASE activity-based assay (IC50)
Akt2 [2] = molecular target: T1, Akt2; experiment: STK HTRF KinEASE activity-based assay (IC50)
Akt3 = Akt3 (Homo sapiens, UniProt Q9Y243); experiment: STK HTRF KinEASE activity-based assay (IC50)
[3] = cell viability assay Ba/F3 myr-Akt cells, log units

Chain of Akt3 (Q9Y243 whole entry): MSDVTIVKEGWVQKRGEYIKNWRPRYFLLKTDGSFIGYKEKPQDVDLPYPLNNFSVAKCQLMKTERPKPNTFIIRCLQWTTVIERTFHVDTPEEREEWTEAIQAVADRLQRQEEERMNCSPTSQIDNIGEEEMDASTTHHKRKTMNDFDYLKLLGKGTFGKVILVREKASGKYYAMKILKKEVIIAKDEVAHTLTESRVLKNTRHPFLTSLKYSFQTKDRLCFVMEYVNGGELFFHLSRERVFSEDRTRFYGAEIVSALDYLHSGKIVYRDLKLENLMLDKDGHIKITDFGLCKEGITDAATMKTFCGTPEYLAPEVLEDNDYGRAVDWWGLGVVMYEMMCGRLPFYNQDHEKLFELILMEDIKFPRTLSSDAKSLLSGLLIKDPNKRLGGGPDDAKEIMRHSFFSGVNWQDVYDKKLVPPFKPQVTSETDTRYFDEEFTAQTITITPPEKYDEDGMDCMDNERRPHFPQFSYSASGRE
Chain of Akt1 (P31749 whole entry): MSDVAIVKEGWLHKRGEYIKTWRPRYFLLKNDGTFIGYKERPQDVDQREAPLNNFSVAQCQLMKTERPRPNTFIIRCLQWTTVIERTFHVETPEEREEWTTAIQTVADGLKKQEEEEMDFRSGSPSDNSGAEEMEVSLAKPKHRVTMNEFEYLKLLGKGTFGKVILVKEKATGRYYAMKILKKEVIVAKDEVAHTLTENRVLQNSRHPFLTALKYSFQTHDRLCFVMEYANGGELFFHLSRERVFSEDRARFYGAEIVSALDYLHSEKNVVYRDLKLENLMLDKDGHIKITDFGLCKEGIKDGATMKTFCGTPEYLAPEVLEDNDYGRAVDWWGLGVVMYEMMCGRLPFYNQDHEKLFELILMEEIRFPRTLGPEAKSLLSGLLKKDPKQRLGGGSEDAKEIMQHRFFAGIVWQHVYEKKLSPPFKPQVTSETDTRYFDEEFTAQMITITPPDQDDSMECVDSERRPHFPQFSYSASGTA
T1 sequence (P31751 whole entry): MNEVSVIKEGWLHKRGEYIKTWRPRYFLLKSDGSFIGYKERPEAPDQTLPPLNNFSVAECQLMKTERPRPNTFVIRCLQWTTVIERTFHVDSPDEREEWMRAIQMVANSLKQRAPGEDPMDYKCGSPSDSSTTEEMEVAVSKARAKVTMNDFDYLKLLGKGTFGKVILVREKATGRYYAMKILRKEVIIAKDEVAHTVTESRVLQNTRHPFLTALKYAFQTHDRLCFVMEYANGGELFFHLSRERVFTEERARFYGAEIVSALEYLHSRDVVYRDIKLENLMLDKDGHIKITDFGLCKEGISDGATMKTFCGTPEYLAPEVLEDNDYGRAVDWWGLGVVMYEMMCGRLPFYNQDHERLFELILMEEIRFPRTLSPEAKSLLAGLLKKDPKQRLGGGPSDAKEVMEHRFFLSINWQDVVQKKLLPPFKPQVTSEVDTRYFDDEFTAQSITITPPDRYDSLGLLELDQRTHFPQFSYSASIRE

`C=CC(=O)Nc1ccc2[nH]c(=O)n(C3CCN(Cc4ccc(-c5ncc(Cc6ccc(N)nc6)cc5-c5ccccc5)cc4)CC3)c2c1` [compound 20] was tested, and the cell viability (Ba/F3^myr-Akt1 cells; myr-Akt1, 0.1 nM, single replicates, 0.0001 µM) was 108.0 % of control and 90.0 % of control, the cell viability (Ba/F3^myr-Akt1 cells; myr-Akt1, 5000 nM, single replicates, 5 µM) was 85.6 % of control and 91.8 % of control and the EC50 (Ba/F3^myr-Akt1 cells; Mus musculus, read-out: CTG BaF3myr-Akt1, Mean, mean of replicates) was 9.48 µM. The EC50 (Ba/F3^myr-Akt1 cells; Mus musculus, read-out: CTG BaF3myr-Akt1, individual determinations, single replicates) was 10 µM, the viability at 0.0001 µM (Ba/F3^myr-Akt1 cells; Mus musculus, read-out: cell viability, CTG, myr-Akt1, 0.1 nM, single replicates) was 102% and the viability at 5 µM (Ba/F3^myr-Akt1 cells; Mus musculus, read-out: cell viability, CTG, myr-Akt1, 5000 nM, single replicates) was 73.6%. For the same compound, the “Log ratio EC50 [Akt] / EC50 [Akt], Akt1 / Akt2” value (Ba/F3^myr-Akt1 cells; [3]) was 0.27, the EC50 (Ba/F3^myr-Akt1 cells; read-out: CTG BaF3myr-Akt1, individual determinations, single replicates) was 9.21 µM and 9.25 µM and the cell viability (Ba/F3^myr-Akt2 cells; myr-Akt2, 0.1 nM, single replicates, 0.0001 µM) was 92.3 % of control and 98.1 % of control. For the same compound, the cell viability (Ba/F3^myr-Akt2 cells; myr-Akt2, 5000 nM, single replicates, 5 µM) was 26.9 % of control and 44.2 % of control, the EC50 (Ba/F3^myr-Akt2 cells; Mus musculus, read-out: CTG BaF3myr-Akt2, Mean, mean of replicates) was 4.09 µM and the EC50 (Ba/F3^myr-Akt2 cells; Mus musculus, read-out: CTG BaF3myr-Akt2, individual determinations, single replicates) was 2.95 µM. For the same compound, the viability at 0.0001 µM (Ba/F3^myr-Akt2 cells; Mus musculus, read-out: cell viability, CTG, myr-Akt2, 0.1 nM, single replicates) was 105%, the viability at 5 µM (Ba/F3^myr-Akt2 cells; Mus musculus, read-out: cell viability, CTG, myr-Akt2, 5000 nM, single replicates) was 25.6% and the EC50 (Ba/F3^myr-Akt2 cells; read-out: CTG BaF3myr-Akt2, individual determinations, single replicates) was 4.7 µM and 4.62 µM. For the same compound, the cell viability (Ba/F3^myr-Akt3 cells; myr-Akt3, 0.1 nM, single replicates, 0.0001 µM) was 100.1 % of control and 113.6 % of control and 88.4 % of control, the cell viability (Ba/F3^myr-Akt3 cells; myr-Akt3, 5000 nM, single replicates, 5 µM) was 49.5 % of control and 56.5 % of control and 73.0 % of control and the EC50 (Ba/F3^myr-Akt3 cells; Mus musculus, read-out: CTG BaF3myr-Akt3, Mean, mean of replicates) was 5.05 µM. The EC50 (Ba/F3^myr-Akt3 cells; Mus musculus, read-out: CTG BaF3myr-Akt3, individual determinations, single replicates) was 5.1 µM, the “Log ratio EC50 [Akt] / EC50 [Akt], Akt3 / Akt2” value (Ba/F3^myr-Akt3 cells; [3]) was -0.09 and the EC50 (Ba/F3^myr-Akt3 cells; read-out: CTG BaF3myr-Akt3, individual determinations, single replicates) was 4.07 µM and 5.52 µM. The tAkt2 % (Akt2 [1]; CETSA PANC1, 1 µM, temperature 39.9) was 100.00%, the tAkt2 % (Akt2 [1]; CETSA PANC1, 1 µM, temperature 43.5) was 81.90% and the tAkt2 % (Akt2 [1]; CETSA PANC1, 1 µM, temperature 48.4) was 58.55%. For the same compound, the tAkt2 % (Akt2 [1]; CETSA PANC1, 1 µM, temperature 53.8) was 58.55%, the tAkt2 % (Akt2 [1]; CETSA PANC1, 1 µM, temperature 58.1) was 42.44% and the tAkt2 % (Akt2 [1]; CETSA PANC1, 1 µM, temperature 61.4) was 52.13%. For the same compound, the tAkt2 % (Akt2 [1]; CETSA PANC1, 1 µM, temperature 65.6) was 35.55%, the tAkt2 % (Akt2 [1]; CETSA PANC1, 1 µM, temperature 70.9) was 6.07% and the tAkt2 % (Akt2 [1]; CETSA PANC1, 1 µM, temperature 76) was 11.50%. For the same compound, the tAkt2 % (Akt2 [1]; CETSA PANC1, 1 µM, temperature 79.9) was 0.00%, the tAkt2 % (Akt2 [1]; CETSA PANC1, 2.5 µM, temperature 39.9) was 100.00% and the tAkt2 % (Akt2 [1]; CETSA PANC1, 2.5 µM, temperature 43.5) was 97.05%. The tAkt2 % (Akt2 [1]; CETSA PANC1, 2.5 µM, temperature 48.4) was 85.02%, the tAkt2 % (Akt2 [1]; CETSA PANC1, 2.5 µM, temperature 53.8) was 75.94% and the tAkt2 % (Akt2 [1]; CETSA PANC1, 2.5 µM, temperature 58.1) was 76.89%. It also gave a tAkt2 % (Akt2 [1]; CETSA PANC1, 2.5 µM, temperature 61.4) of 28.89%, a tAkt2 % (Akt2 [1]; CETSA PANC1, 2.5 µM, temperature 65.6) of 35.73% and a tAkt2 % (Akt2 [1]; CETSA PANC1, 2.5 µM, temperature 70.9) of 24.29%. The tAkt2 % (Akt2 [1]; CETSA PANC1, 2.5 µM, temperature 76) was 12.62%, the tAkt2 % (Akt2 [1]; CETSA PANC1, 2.5 µM, temperature 79.9) was 0.00% and the “thermal stabilization of Akt2 (CETSA, in words)” value (Akt2 [1]; PANC1, 2.5 µM) was “significant stabilization of Akt2 and Akt3”. For the same compound, the IC50 (Akt1; HTRF IC50 Akt1, Mean, mean of replicates) was 1.63 µM, the IC50 (Akt1; HTRF IC50 Akt1, individual determinations, single replicates) was 1.63 µM and 1.81 µM and 1.45 µM and the IC50 (Akt1; IC50 Akt1, HTRF, ATP at KM, 1 h preincubation) was 1.63 ± 0.148 µM. For the same compound, the “Log ratio IC50 [Akt] / IC50 [Akt], Akt1 / Akt2” value (Akt1; biochemical activity based assay, log units) was 0.97, the IC50 (Akt2 [2]; HTRF IC50 Akt2, Mean, mean of replicates) was 0.175 µM and the IC50 (Akt2 [2]; HTRF IC50 Akt2, individual determinations, single replicates) was 0.177 µM and 0.317 µM and 0.174 µM. The IC50 (Akt2 [2]; IC50 Akt2, HTRF, ATP at KM, 1 h preincubation) was 0.175 ± 0.002 µM, the IC50 (Akt3; HTRF IC50 Akt3, individual determinations, single replicates) was 0.144 µM and 0.176 µM and 0.24 µM and 0.188 µM and the IC50 (Akt3; IC50 Akt3, HTRF, ATP at KM, 1 h preincubation) was 0.187 ± 0.04 µM.
